Data from publication PMC11952846, “The sterol-regulating human ARV1 binds cholesterol and phospholipids through its conserved ARV1 homology domain” (The Journal of Biological Chemistry, 2025).
Positions count from the first letter of the chain named.

Columns and labels:
GST-ARV1-N98 K67A = molecular target: T1, GST-ARV1-N98 K67A (Homo sapiens, UniProt Q9H2C2, K67A); experiment: Liposome binding assay, site-directed mutant; conditions: PC:PL, sulfatide liposomes
T1 construct: Expresses amino-terminal 98 amino acids of ARV1; made in house; host or cells: E. coli BL21 (pGEX-4T1)
T1 sequence (Q9H2C2 1-98 K67A): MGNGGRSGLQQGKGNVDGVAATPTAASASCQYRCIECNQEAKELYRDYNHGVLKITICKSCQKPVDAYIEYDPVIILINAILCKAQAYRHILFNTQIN
Description: (§1) Lyophilized lipids were reconstituted in chloroform at 10 mg/ml and stored in glass tubes with Teflon tops at −20 °C until use. One milliliter of 10 mg/ml stock was dried under a stream of nitrogen in a glass tube until a lipid cake/film was formed. The lipid cake was then rehydrated in BLT rehydration buffer (5 mM Tris/HCl, pH 7.4, containing 150 mM NaCl) to a concentration of 1 mg/ml. Lipid suspensions were subjected to three freeze/thaw cycles using a dry ice ethanol/[…] water bath to encapsulate the buffer and improve liposome formation. The suspension and lipid extruder were equilibrated to temperature for 10 min and liposomes were extruded using […] polycarbonate membranes (Avestin). Liposomes were made by mixing stock lipid PL (1 mg/ml) with PC (10 mg/ml).
(§2) Sulfatide liposomes were generated as previously described ([94]). All lipids were resuspended in organic solvents as per manufacturer’s instructions. Liposomes were prepared with mixing PC:PE:cholesterol:sulfatides (1:1:1:4) and subsequently dried down by lyophilization to obtain lipid films. Lipids were hydrated in 20 mM Tris–HCL, pH 6.8, containing 100 mM NaCl at a concentration of 1 mg/ml.
(§3) PI(4)P liposomes were generated as described by Knodler et al. ([95]), with some modifications. Briefly, liposomes were generated at a lipid concentration of 10 mg/ml. Liposomes contained PC (60%), PI (30%), PE (8%), and PI(4)P (2%). Lipid solution was dried down and resuspended in liposome buffer (20 mM Hepes–HCL, pH 7.4, containing 1 mM EDTA and 50 mM potassium acetate). Liposomes were formed by sonication on ice.
(§4) Liposomes were serial diluted in floatation buffer (100 mM NaCl, 2 mM EDTA, pH 5.5) to a final concentration of 0.1 mg/ml. Nine hundred microliters of liposome solution was placed in clear ultracentrifuge tubes and mixed with 100 μl of 0.01 μg/ml of protein. The liposome/protein solution was incubated at room temperature for 1 h with occasional shaking. An initial 100 μl of liposome/protein solution (liposomes) was removed and the remaining 900 μl was centrifuged at 50,000g for 20 min at 4 °C. The pellet was resuspended in 800 μl of fresh floatation buffer, centrifuged as above, and 800 μl of supernatant was removed (wash 1). This was repeated a second time and again 800 μl of supernatant was removed (wash 2). The final pellet was resuspended in 100 μl of floatation buffer plus SDS treatment buffer (pellet). Thirty microliters of each fraction was run on a 15% SDS-PAGE gel and probed with an anti-GST monoclonal antibody at a 1:1500 dilution.

GST-ARV1-N98 N94A = molecular target: T2, GST-ARV1-N98 N94A (Homo sapiens, UniProt Q9H2C2, N94A); experiment: Liposome binding assay, site-directed mutant; conditions: PC:PL, sulfatide or PI(4)P liposomes
T2 construct: Expresses amino-terminal 98 amino acids of ARV1; made in house; host or cells: E. coli BL21 (pGEX-4T1)
T2 sequence (Q9H2C2 1-98 N94A): T1 sequence (Q9H2C2 1-98 K67A) with A67K, N94A
Description: as §1, §2, §3, §4

6XHIS-ARV1-N98 C58/C61A = molecular target: T3, 6XHIS-ARV1-N98 C58/C61A (Homo sapiens, UniProt Q9H2C2, C58A/C61A); experiment: Lipid overlay far western, site-directed mutant; type: binding; conditions: compared to the ARV1-N98 protein
T3 construct: Expressing amino-terminal 98 amino acids of ARV1; made in house; host or cells: E. coli BL21 (pET-28a(+))
T3 sequence (Q9H2C2 1-98 C58A/C61A): T1 sequence (Q9H2C2 1-98 K67A) with C58A, C61A, A67K
Procedure, shortened: (§5)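 Steps: block overlays 1 h in Tris pH 7.5 saline with 0.5% Tween 20 and 3% BSA; wash; add 0.5 μg/ml protein with 0.1% Triton X-100 for 1 h at RT; wash; anti-tag antibody 1 h; HRP substrate imaging.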

6XHIS-ARV1-N98 N94Q = molecular target: T4, 6XHIS-ARV1-N98 N94Q (Homo sapiens, UniProt Q9H2C2, N94Q); experiment: Lipid overlay far western, site-directed mutant; type: binding; conditions: compared to the ARV1-N98 protein
T4 construct: Expressing amino-terminal 98 amino acids of ARV1; made in house; host or cells: E. coli BL21 (pET-28a(+))
T4 sequence (Q9H2C2 1-98 N94Q): T1 sequence (Q9H2C2 1-98 K67A) with A67K, N94Q
Procedure, shortened: as §5

6XHIS-ARV1-N98 K54/K59A = molecular target: T5, 6XHIS-ARV1-N98 K54/K59A (Homo sapiens, UniProt Q9H2C2, K54A/K59A); experiment: Lipid overlay far western, site-directed mutant; type: binding; conditions: compared to the ARV1-N98 protein
T5 construct: Expressing amino-terminal 98 amino acids of ARV1; made in house; host or cells: E. coli BL21 (pET-28a(+))
T5 sequence (Q9H2C2 1-98 K54A/K59A): T1 sequence (Q9H2C2 1-98 K67A) with K54A, K59A, A67K
Procedure, shortened: as §5

GST-ARV1-N98 C58/C61A = molecular target: T6, GST-ARV1-N98 C58/C61A (Homo sapiens, UniProt Q9H2C2, C58A/C61A); experiment: Liposome binding assay, site-directed mutant; conditions: PC:PL, sulfatide or PI(4)P liposomes
T6 construct: Expresses amino-terminal 98 amino acids of ARV1; made in house; host or cells: E. coli BL21 (pGEX-4T1)
T6 sequence (Q9H2C2 1-98 C58A/C61A): T1 sequence (Q9H2C2 1-98 K67A) with C58A, C61A, A67K
Description: as §1, §2, §3, §4

GST-ARV1-N70 = molecular target: T7, GST-ARV1-N70 (Homo sapiens, UniProt Q9H2C2); experiment: Lipid overlay far western, truncation; type: binding; conditions: compared to ARV1-N98
T7 construct: Expresses amino-terminal 70 amino acids of ARV1; made in house; host or cells: E. coli BL21 (pGEX-4T1)
T7 sequence (Q9H2C2 1-70): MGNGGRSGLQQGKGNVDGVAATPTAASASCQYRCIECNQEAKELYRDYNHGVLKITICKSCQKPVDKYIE
Procedure, shortened: as §5

Compound | liposome binding (GST-ARV1-N98 K67A) | liposome binding (GST-ARV1-N98 N94A) | change of lipid-protein interaction (6XHIS-ARV1-N98 C58/C61A) | change of lipid-protein interaction (6XHIS-ARV1-N98 N94Q) | change of lipid-protein interaction (6XHIS-ARV1-N98 K54/K59A) | liposome binding (GST-ARV1-N98 C58/C61A) | change of lipid-protein interaction (GST-ARV1-N70)
phosphatidylethanolamine [PE] | showed binding |  |  |  |  |  | 
CCCCCCCC/C=C\CCCCCCCC(=O)OC[C@H](COP(=O)(O)OCC(O)CO)OC(=O)CCCCCCC/C=C\CCCCCCCC (some centres unmarked) [PG, phosphatidylglycerol] | unable to bind | very weak | weakened or eliminated | more strongly | abolished |  | 
CCCCCCCCCCCCCCCC(=O)OC[C@H](COP(=O)(O)O)OC(=O)CCCCCCCCCCCCCCC [PA, phosphatidic acid] |  |  |  |  |  | did not bind | 
CCCCCC(=O)O[C@H](COC(=O)CCCCCNC(=O)CCCC[C@@H]1SC[C@@H]2NC(=O)N[C@@H]21)COP(=O)(O)O[C@H]1[C@H](O)[C@@H](O)[C@H](OP(=O)(O)O)[C@@H](O)[C@H]1O [reference compound] |  | lost the ability to bind |  |  | increasing the interaction | did not bind | enhanced
CCCCC/C=C\C/C=C\CCCCCCCC(=O)OC[C@H](COP(=O)(O)OCC(O)COP(=O)(O)OC[C@@H](COC(=O)CCCCCCC/C=C\C/C=C\CCCCC)OC(=O)CCCCCCC/C=C\C/C=C\CCCCC)OC(=O)CCCCCCC/C=C\C/C=C\CCCCC (some centres unmarked) [CL, cardiolipin] |  |  |  | more strongly |  |  | 
CCCCCCCCCCCCCCCCCC(=O)OC[C@H](COP(=O)(O)OC[C@H](N)C(=O)O)OC(=O)CCCCCCCCCCCCCCCCC [PS, phosphatidylserine] |  |  | enhanced |  |  |  | reduced interactions
